Source: patent US8202885B2, “Bridged six-membered ring compounds” (Actelion Pharmaceuticals Ltd., priority 2007, dated 2012)

These compounds were tested on human Cav3.1 Cav3.2 or Cav3.3 channel (assay: In vitro assay T channel (FLIPR calcium fluorescence)). Conditions: HEK293 cells expressing human Cav3.1, Cav3.2 or Cav3.3; 10 mM Ca2+-induced fluo-4 fluorescence; determined up to 10 μM; read-out: T channel antagonistic activity IC50.
Type: cell-based
Procedure: The T channel antagonistic activity (IC50 values) of the compounds of formula (I) is determined in accordance with the following experimental method and data are shown in Table 1.
Human embryonic kidney (HEK293) cells expressing the human Cav3.1 Cav3.2 or Cav3.3 channel, respectively, are grown in culture medium (DMEM containing 10% heat-inactivated fetal calf serum (FCS), 100 U/ml penicillin, 100 μg/ml streptomycin and 1 mg/ml G418). The cells are seeded at 20.000 cells/well into 384-well black clear bottom sterile plates (poly-L-lysine-coated, Becton Dickinson). The seeded plates are incubated overnight at 37° C. in 5% CO2. The Ca^2+ solution is prepared as 100 mM stock solution in 100 mM tetraethylammoniumchloride (TEA-chloride), 50 mM HEPES, 2.5 mM CaCl2, 5 mM KCl, 1 mM MgCl2, adjusted to pH 7.2 with TEA-hydroxide, for use in the assay at a final concentration of 10 mM. Antagonists are prepared as 10 mM stock solutions in DMSO, then diluted in 384 w plates first in DMSO, then in 100 mM TEA-chloride, 50 mM HEPES, 2.5 mM CaCl2, 5 mM KCl, 1 mM MgCl2, adjusted to pH 7.2 with TEA-hydroxide, to obtain 9× stocks. On the day of the assay, 25 μl of staining buffer (HBSS containing 20 mM HEPES, 0.375 g/l NaHCO3 and 3 μM of the fluorescent calcium indicator fluo-4 AM (1 mM stock solution in DMSO, containing 10% pluronic) is added to each well of the seeded plate. The 384-well cell-plates are incubated for 60 min at 37° C. in 5% CO2 followed by washing with 2×50 μl per well using HBSS containing 0.1% BSA, 20 mM HEPES, 0.375 g/l NaHCO3, leaving 50 […] of this buffer for equilibration at room temperature (30-60 min). Within the Fluorescent Imaging Plate Reader (FLIPR, Molecular Devices), antagonists are added to the plate in a volume of 6.25 μl/well, incubated for 3 min, and finally 6.25 […] of Ca^2+ solution is added. Fluorescence is measured for each well at 2 second intervals for 8 minutes, and the area under the curve of each fluorescence peak is compared to the area of the fluorescence peak induced by 10 mM Ca^2+ with vehicle in place of antagonist. For each antagonist, the IC50 value (the concentration (in nM) of compound needed to inhibit 50% of the Ca^2+-induced fluorescence response) up to 10 μM is determined.

SMILES	IC50
COc1cccc2[nH]c(CCCN(C)CC[C@]3(O)C[C@H]4CC[C@@H]3C=C4c3ccccc3)nc12 (relative stereo) [Example 26, rac-(1R*,2R*,4R*)-2-(2-{[3-(4-Methoxy-1H-benzoimidazol-2-yl)-propyl]-methyl-amino}-ethyl)-5-phenyl-bicyclo[2.2.2]oct-5-en-2-ol]	> 10000 nM
CN(CCCc1nc2cc(Cl)c(Cl)cc2[nH]1)CC[C@]1(O)C[C@H]2CC[C@@H]1C=C2c1ccccc1 (relative stereo) [Example 27, rac-(1R*,2R*,4R*)-2-(2-{[3-(5,6-Dichloro-1H-benzoimidazol-2-yl)-propyl]-methyl-amino}-ethyl)-5-phenyl-bicyclo[2.2.2]oct-5-en-2-ol]	> 10000 nM
COc1cc2nc(CCCN(C)CC[C@]3(O)C[C@H]4CC[C@@H]3C=C4c3ccccc3)[nH]c2cc1OC (relative stereo) [Example 28, rac-(1R*,2R*,4R*)-2-(2-{[3-(5,6-Dimethoxy-1H-benzoimidazol-2-yl)-propyl]-methyl-amino}-ethyl)-5-phenyl-bicyclo[2.2.2]oct-5-en-2-ol]	2530 nM
COc1ccc2[nH]c(CCCN(C)CC[C@]3(O)C[C@H]4CC[C@@H]3C=C4c3ccccc3)nc2c1 (relative stereo) [Example 29, rac-(1R*,2R*,4R*)-2-(2-{[3-(5-Methoxy-1H-benzoimidazol-2-yl)-propyl]-methyl-amino}-ethyl)-5-phenyl-bicyclo[2.2.2]oct-5-en-2-ol]	> 10000 nM
COc1ccc(C)c2nc(CCCN(C)CC[C@]3(O)C[C@H]4CC[C@@H]3C=C4c3ccccc3)[nH]c12 (relative stereo) [Example 30, rac-(1R*,2R*,4R*)-2-(2-{[3-(7-Methoxy-4-methyl-1H-benzoimidazol-2-yl)-propyl]-methyl-amino}-ethyl)-5-phenyl-bicyclo[2.2.2]oct-5-en-2-ol]	1780 nM
CCOc1cccc2nc(CCCN(C)CC[C@]3(O)C[C@H]4CC[C@@H]3C=C4c3ccccc3)[nH]c12 (relative stereo) [Example 31, rac-(1R*,2R*,4R*)-2-(2-{[3-(7-Ethoxy-1H-benzoimidazol-2-yl)-propyl]-methyl-amino}-ethyl)-5-phenyl-bicyclo[2.2.2]oct-5-en-2-ol]	2580 nM

Next, values leading:

IC50	SMILES
2090 nM	COc1cccc2[nH]c(CCCN(C)CC[C@]3(OC(=O)C(C)C)C[C@H]4CC[C@@H]3C=C4c3ccccc3)nc12 (relative stereo) [Example 26A, rac-Isobutyric acid (1R*,2R*,4R*)-2-(2-{[3-(4-methoxy-1H-benzoimidazol-2-yl)-propyl]-methyl-amino}-ethyl)-5-phenyl-bicyclo[2.2.2]oct-5-en-2-yl ester]
> 10000 nM	COc1cccc2[nH]c(CCCN(C)CC[C@]3(OC(=O)C4CCC4)C[C@H]4CC[C@@H]3C=C4c3ccccc3)nc12 (relative stereo) [Example 26B, rac-Cyclobutanecarboxylic acid (1R*,2R*,4R*)-2-(2-{[3-(4-methoxy-1H-benzoimidazol-2-yl)-propyl]-methyl-amino}-ethyl)-5-phenyl-bicyclo[2.2.2]oct-5-en-2-yl ester]
1050 nM	COc1cccc2[nH]c(CCCN(C)CC[C@]3(OC(=O)C(C)(C)C)C[C@H]4CC[C@@H]3C=C4c3ccccc3)nc12 (relative stereo) [Example 26D, rac-2,2-Dimethyl propionic acid (1R*,2R*,4R*)-2-(2-{[3-(4-methoxy-1H-benzoimidazol-2-yl)-propyl]-methyl-amino}-ethyl)-5-phenyl-bicyclo[2.2.2]oct-5-en-2-yl ester]
1110 nM	COc1cccc2[nH]c(CCCN(C)CC[C@]3(OC(=O)NC(C)C)C[C@H]4CC[C@@H]3C=C4c3ccccc3)nc12 (relative stereo) [Example 26E, rac-Isopropyl-carbamic acid (1R*,2R*,4R*)-2-(2-{[3-(4-methoxy-1H-benzoimidazol-2-yl)-propyl]-methyl-amino}-ethyl)-5-phenyl-bicyclo[2.2.2]oct-5-en-2-yl ester]
951 nM	COc1cccc2[nH]c(CCCN(C)CC[C@]3(OC(=O)C(C)(C)OC)C[C@H]4CC[C@@H]3C=C4c3ccccc3)nc12 (relative stereo) [Example 26F, rac-2-Methoxy-2-methyl-propionic acid (1R*,2R*,4R*)-2-(2-{[3-(4-methoxy-1H-benzoimidazol-2-yl)-propyl]-methyl-amino}-ethyl)-5-phenyl-bicyclo[2.2.2]oct-5-en-2-yl ester]
935 nM	COc1cccc2[nH]c(CCCN(C)CC[C@]3(OC(=O)OC(C)C)C[C@H]4CC[C@@H]3C=C4c3ccccc3)nc12 (relative stereo) [Example 26G, rac-Carbonic acid isopropyl ester (1R*,2R*,4R*)-2-(2-{[3-(4-methoxy-1H-benzoimidazol-2-yl)-propyl]-methyl-amino}-ethyl)-5-phenyl-bicyclo[2.2.2]oct-5-en-2-yl ester]
6740 nM	CC(C)C(=O)O[C@@]1(CCN(C)CCCc2nc3cc(Cl)c(Cl)cc3[nH]2)C[C@H]2CC[C@@H]1C=C2c1ccccc1 (relative stereo) [Example 27A, rac-Isobutyric acid (1R*,2R*,4R*)-2-(2-{[3-(5,6-dichloro-1H-benzoimidazol-2-yl)-propyl]-methyl-amino}-ethyl)-5-phenyl-bicyclo[2.2.2]oct-5-en-2-yl ester]
4730 nM	CN(CCCc1nc2cc(Cl)c(Cl)cc2[nH]1)CC[C@]1(OC(=O)C2CC2)C[C@H]2CC[C@@H]1C=C2c1ccccc1 (relative stereo) [Example 27B, rac-Cyclopropanecarboxylic acid (1R*,2R*,4R*)-2-(2-{[3-(5,6-dichloro-1H-benzoimidazol-2-yl)-propyl]-methyl-amino}-ethyl)-5-phenyl-bicyclo[2.2.2]oct-5-en-2-yl ester]
3460 nM	COc1cc2nc(CCCN(C)CC[C@]3(OC(=O)C(C)C)C[C@H]4CC[C@@H]3C=C4c3ccccc3)[nH]c2cc1OC (relative stereo) [Example 28A, rac-Isobutyric acid (1R*,2R*,4R*)-2-(2-{[3-(5,6-dimethoxy-1H-benzoimidazol-2-yl)-propyl]-methyl-amino}-ethyl)-5-phenyl-bicyclo[2.2.2]oct-5-en-2-yl ester]
4510 nM	COc1ccc2[nH]c(CCCN(C)CC[C@]3(OC(=O)C(C)C)C[C@H]4CC[C@@H]3C=C4c3ccccc3)nc2c1 (relative stereo) [Example 29A, rac-Isobutyric acid (1R*,2R*,4R*)-2-(2-{[3-(5-methoxy-1H-benzoimidazol-2-yl)-propyl]-methyl-amino}-ethyl)-5-phenyl-bicyclo[2.2.2]oct-5-en-2-yl ester]
1250 nM	COc1ccc(C)c2nc(CCCN(C)CC[C@]3(OC(=O)C(C)C)C[C@H]4CC[C@@H]3C=C4c3ccccc3)[nH]c12 (relative stereo) [Example 30A, rac-Isobutyric acid (1R*,2R*,4R*)-2-(2-{[3-(7-methoxy-4-methyl-1H-benzoimidazol-2-yl)-propyl]-methyl-amino}-ethyl)-5-phenyl-bicyclo[2.2.2]oct-5-en-2-yl ester]
2600 nM	CCOc1cccc2nc(CCCN(C)CC[C@]3(OC(=O)C(C)C)C[C@H]4CC[C@@H]3C=C4c3ccccc3)[nH]c12 (relative stereo) [Example 31A, rac-Isobutyric acid (1R*,2R*,4R*)-2-(2-{[3-(7-ethoxy-1H-benzoimidazol-2-yl)-propyl]-methyl-amino}-ethyl)-5-phenyl-bicyclo[2.2.2]oct-5-en-2-yl ester]
